28 compounds from US10883116B2, “Transduction buffer” (Koninklijke Nederlandse Akademie van Wetenschappen, priority 2013, dated 2021) can be followed below.

Where two headings read alike, the source gives them in different places.

For data set [1], the system named is murine embryonic fibroblasts (MEFs). The data set can be described thus: β-Lactamase protein transduction assay (CCF2-AM), protocol 3/700. The settings on record: for protein transducing activity of hypertonicity-inducing compound: tonicity adjusted to 700 mOsm/Kg with the compound, 25 mM NDSB201 and osmoprotectants; for enhancement of protein transduction by GABA agonist / effect of endocytic pathway inhibitor on protein transduction: 1 μM β-lactamase; for enhancement of protein transduction by GABA agonist: 25 mM NDSB201 plus GABA agonist, NDSB201 alone = 100%; for protein transduction activity (in words): 25 mM compound, compared with NDSB201 (#01) or parent compound; for effect of growth factor or peptide on β-lactamase transduction of MEFs: 25 mM NDSB201, 30 mM Glycerol, 15 mM Glycine. The source says: To further characterize the protein transduction process we analyzed the effect of time, osmolality, transduction compound concentration and protein concentration on the transduction process. To this end, we set up a β-Lactamase protein transduction assay and measured intracellular β-Lactamase activity using CCF2-AM, an intracellular fluorescent β-Lactamase substrate that changes emission wavelength when cleaved by the enzyme (FIG. 3A). […] While we used the immortalized COS7 cell line in our initial studies, we wanted to know if the compound-mediated protein transduction would also allow the transduction of protein into primary cells. We therefore transduced murine embryonic fibroblasts (MEFs) with β-Lactamase (1 μM final concentration), using NaCl-adjusted hypertonic media (700 mOsm/Kg) and 25 mM NDSB201. β-Lactamase activity was set at 1 at the start of the experiment and relative intracellular β-Lactamase activity was measured as a function of time (FIG. 3B, bars). As a control, β-Lactamase transduction was measured in isotonic media in the presence of 25 mM NSDB201 (FIG. 3B, open circles).
β-lactamase transduction was performed using the 3/700 protocol above in murine embryonic fibroblasts (MEFs). A black, clear-bottom 96 well-plate was coated with 0.15 mg/ml of Poly-D-Lysine for 1 h at room temperature. 12,000 MEFs cells were seeded per well in MEF media without antibiotics. Next day, cells were transduced using the transduction protocol 3/700 as describe above. […] Na- or Rb-salt was added to adjust the final tonicity to 700 mOsm/Kg. […] After 3 hrs., the transduction media was replaced by fresh MEF media for 30 min. Subsequently, cells were washed once with phenol-red-free DMEM. β-lactamase activity was measured using the CCF2-AM kit following the manufacturer's instructions. In brief, 120 μl of CCF2-AM loading media was added per well and cells were incubated for 1 h at room temperature. Cells were washed two times with DMEM phenol-red free and incubated for an additional 30-60 min. Fluorescence emission was measured at […] and 510 nm following manufacturer's instructions. All tests were done in triplicate.

For data set [2] the test system is unchanged. The data set can be described thus: BrdU incorporation (cell proliferation) after transduction of MEFs. The note with it: BrdU 24 hrs after start of transduction, 25 mM compound, 700 mOsm/Kg. Background: Incorporation of labelled thymidine or its analogues reports DNA synthesis.
Method: Open circles indicate relative BrdU incorporation by the transduced cells. BrdU incorporation of untransduced cells was set at 100% and BrdU incorporation of mitomycin C-treated cells was set at 0%.
Cell proliferation was determined using the Cell Proliferation Elisa kit, Brdu (Roche) following manufacturer's instructions (Roche).
Data set [3] deals with MEFs cells expressing GAL3-GFP protein. Put plainly: GAL3-GFP macropinosome vesicle leakage reporter assay. The settings on record: 700/3 conditions.
Method: Schematic representation of the GAL3-GFP reporter assay. Upon initiation of transduction, extracellularly applied protein is taken up into macropinosomes (grey vesicles). […] At the same time, the compromised macropinosome membrane now allows entry of cytosolic GAL3-GFP protein, which binds to—and accumulates at the intra-macropinosome carbohydrates resulting in a bright fluorescent signal (white vesicles). […] GAL3-GFP cells were incubated with transduction media at 700 mOsmol/Kg with or without the macropinocytosis inhibitor EIPA. Untreated cells were included as negative control.
For transduction to occur, proteins that have been taken by macropinocytosis have to be released into the cytosol. […] To test the efficacy of potential transduction compound candidates, we set up an assay to monitor macropinosome vesicle permeation. […] We set up a reporter system in which Galectin-3 protein is fused to GFP (GAL3-GFP). Cytosolic GAL3-GFP protein relocalises to the interior of permeabilized macropinosomes, whereby a multimer complex is formed with intense green fluorescent emission. MEFs cells expressing GAL3-GFP protein were transduced using the 700/3 conditions.
For a further data set, the system named is COS7 cells. Put plainly: Oct4 luciferase reporter (6×OCT4-TK-Luc) protein transduction assay. The data set is classed as cell-based.
[4] abbreviates: 3 hours, 700 mOsm/Kg NaCl, 25 mM NDSB201.
[5] abbreviates: 3 hours, 25 mM NDSB201, tonicity adjusted with NaCl.

Consider `OC[C@H]1O[C@@](CO)(O[C@H]2O[C@H](CO)[C@@H](O)[C@H](O)[C@H]2O)[C@@H](O)[C@@H]1O` [Sucrose], for which, in data set [1] (3 hours), the “protein transducing activity of hypertonicity-inducing compound” value (“protein transducing activity” below) is “failed to induce protein transduction”.

For the compound `NCc1cc(=O)[nH]o1` [Muscimol, reference compound], the “enhancement of protein transduction by GABA agonist” value in data set [1] (3 hours, 700 mOsm/Kg) is “approximately 300%”.

For `[Cl-].[Cs+]` [CsCl, caesium chloride], in data set [1] (3 hours), the “protein transducing activity” value is reported as “had protein transducing activity”.

As for `O=C1NC(=NS(=O)(=O)c2cccc3ccccc23)S/C1=C\c1ccc(Br)cc1` [Pitstop2, reference compound], the “effect of endocytic pathway inhibitor on protein transduction” value (from here on “effect of endocytic pathway inhibitor”) in data set [1] (setting [4]) is “ineffective in inhibiting protein transduction”. Turning to `C[N+]1(CCCS(=O)(=O)[O-])CCCCC1` [compound 03, 3-(1-methylpiperidine)-1-propanesulfonate, reference compound], the “protein transduction activity (in words)” value in data set [1] (3 hours, 700 mOsm/Kg) is reported as “most efficient”. For the compound Insulin: Insulin, the “effect of growth factor or peptide on β-lactamase transduction of MEFs” value in data set [1] (3 hours, 700 mOsm/Kg) is listed as “small, but significant stimulatory effect”. Still for that read-out and setting: the entry for EGF: epidermal growth factor is “doubling of β-lactamase uptake”. `C/C1=C/C(=O)O[C@@H]2C[C@@H](CC[C@H](C)/C=C\C=C\CC1)O[C@@](O)([C@@H]1CSC(=O)N1)C2` [Latrunculin A, reference compound]: the “effect of endocytic pathway inhibitor” value in data set [1] (setting [4]) is recorded as “completely blocked protein transduction”.

For `CCCCN` [compound 24, n-butylamine], the “effect on cell proliferation / viability (BrdU incorporation, in words)” value (from here on “effect on cell proliferation / viability”) in data set [2] was “severe cell cycle inhibition”. Also, the “protein transduction activity (in words)” value in data set [1] (3 hours, 700 mOsm/Kg) is “greatly diminished transduction activity”. For `O=S(=O)([O-])CCC[n+]1ccccc1` [compound 1, 3-(1-pyridino)-1-propanesulfonate, reference compound], the “time after initiation of transduction at which intracellular β-Lactamase activity could be observed” value in data set [1] (1 μM β-Lactamase, 700 mOsm/Kg NaCl, 25 mM NDSB201) is 2.5 h. For the same compound, the “effect of higher compound concentrations under hyperosmotic conditions” value in data set [1] (700 mOsm/kg, above 10-25 mM) is listed as “cell loss”. In addition, the “protein transduction activity (in words)” value in data set [1] (3 hours, 700 mOsm/Kg) is reported as “most efficient”. Besides, the “transduction compound concentration at peak β-Lactamase transduction” value in data set [1] (3 hours, 700 mOsm/kg NaCl, 1 μM β-Lactamase) was in the range of 10 to 25 mM. Moreover, the “Gal3-GFP localisation to macropinocytic vesicles (vesicle leakage)” value in data set [3] is “bright vesicle formation”. Further, the “effect of omitting buffer component on Oct4-reporter activation by Oct4-VP16 protein” value with COS7 cells (COS7 cells) is reported as “abrogated Oct4-reporter activation”. Regarding `O=C(N/N=C/c1ccc(O)c(O)c1)c1cc2ccccc2cc1O` [Dynasore, reference compound], the “effect of endocytic pathway inhibitor” value in data set [1] (setting [4]) is on record as “ineffective in inhibiting protein transduction”.

`NCC(=O)O` [compound 18, Glycine]: the “protein transduction activity (in words)” value in data set [1] (3 hours, 700 mOsm/Kg) was “little to no transduction activity”. Further, the “β-lactamase transduction activity when combined with reference compound #01 (reference set at 100%)” value in data set [1] (equimolar with NDSB201 (#01), 12.5 mM each, total 25 mM, 3 hours, 700 mOsm/Kg) is given as “approximately 15%”. The “Gal3-GFP localisation to macropinocytic vesicles (vesicle leakage)” value in data set [3] is recorded as “did not localize into the macropinocytic vesicles”. Take `C=C1[C@@H](C)[C@H]2[C@H](Cc3ccccc3)NC(=O)[C@]23[C@H](OC(C)=O)/C=C/[C@@](C)(O)C(=O)[C@@H](C)C/C=C/[C@H]3[C@@H]1O` [Cytochalasin D, reference compound]: the “effect of endocytic pathway inhibitor” value in data set [1] (setting [4]) was “completely blocked protein transduction”.

`[Cl-].[K+]` [KCl, potassium chloride]: the “protein transducing activity” value in data set [1] (3 hours) is given as “had protein transducing activity”. Take PDGF: the “effect of growth factor or peptide on β-lactamase transduction of MEFs” value in data set [1] (3 hours, 700 mOsm/Kg) was “doubling of β-lactamase uptake”. `C[C@@H]1[C@H](O)[C@@H](C)/C=C/C=C/CC/C=C/C=C/C=C/C=C/C(O[C@H]2O[C@H](C)[C@@H](O)[C@H](N)[C@@H]2O)CC2O[C@](O)(CC(O)C(O)CCC(O)CC(O)CC(O)CC(=O)O[C@H]1C)CC(O)C2C(=O)O` (some centres unmarked) [Nystatin, reference compound]: the “effect of endocytic pathway inhibitor” value in data set [1] (setting [4]) is listed as “ineffective in inhibiting protein transduction”. `O=C([O-])[C@H](O)[C@@H](O)[C@H](O)[C@H](O)CO.[Na+]` [Sodium Gluconate]: the “protein transducing activity” value in data set [1] (3 hours) is “efficiency similar to NaCl and RbCl”. As to `OC[C@H]1O[C@@H](O[C@@H]2[C@@H](CO)OC(O)(CO)[C@H]2O)[C@H](O)[C@@H](O)[C@H]1O` (mixture of isomers) [Lactulose], the “protein transducing activity” value in data set [1] (3 hours) was “failed to induce protein transduction”. With `CCC(C)(C)CCCS(=O)(=O)O` [compound 07], the “effect on cell proliferation / viability” value in data set [2] is “severe cell cycle inhibition”. Besides, the “protein transduction activity (in words)” value in data set [1] (3 hours, 700 mOsm/Kg) was “greatly diminished transduction activity”.

`CP(=O)(O)CCCN` [SKF-97541, reference compound]: the “enhancement of protein transduction by GABA agonist” value in data set [1] (3 hours, 700 mOsm/Kg) is listed as “approximately 300%”. In the case of `CN(C)CCCN1c2ccccc2Sc2ccc(Cl)cc21` [Chlorpromazine, reference compound], the “effect of endocytic pathway inhibitor” value in data set [1] (setting [4]) was “ineffective in inhibiting protein transduction”.

Take `[Cl-].[Li+]` [LiCl, lithium chloride]: in data set [1] (3 hours), the “protein transducing activity” value was “had protein transducing activity”. For the compound `CCCCC(=O)O` [compound 23, pentanoic acid], the “effect on cell proliferation / viability” value in data set [2] is “severe cell cycle inhibition”. Also, the “protein transduction activity (in words)” value in data set [1] (3 hours, 700 mOsm/Kg) is “greatly diminished transduction activity”. Take `[Cl-].[Na+]` [NaCl, Sodium chloride]: in data set [1] (setting [5]), the “osmolality beyond which cell loss was observed” value is reported as more than 850 mOsm/Kg and the “osmolality of maximal β-Lactamase transduction” value is 700-800 mOsm/Kg. In addition, the “protein transducing activity” value in data set [1] (3 hours) was “the highest activity”. The “effect of omitting buffer component on Oct4-reporter activation by Oct4-VP16 protein” value in the data set on COS7 cells was “abrogated Oct4-reporter activation”. On to `CN(C)c1nc(N)c(C(=O)N=C(N)N)nc1Cl.Cl` [DMA, 5-(N,N-dimethyl) amiloride hydrochloride, reference compound], for which, in data set [1] (setting [4]), the “effect of endocytic pathway inhibitor” value is “strongly inhibited”.

As for `OC[C@@H](O)[C@@H](O)[C@H](O)[C@H](O)CO` [Manitol], the “protein transducing activity” value in data set [1] (3 hours) is on record as “failed to induce protein transduction”.

`[Cl-].[Rb+]` [RbCl, rubidium chloride]: the “protein transducing activity” value in data set [1] (3 hours) was “the highest activity”.

Take `OC[C@@H](O)[C@@H](O)[C@H](O)[C@@H](O)CO` [Sorbitol]: the “protein transducing activity” value in data set [1] (3 hours) is given as “failed to induce protein transduction”.
